# Measured values: patent publication US20100222434A1, “PHARMACEUTICAL COMPOSITION FOR […]-BETA PROTEIN ACCUMULATION” (Sumitomo Chemical Company, Limited, priority 2007, published 2010)
# Tested on: Aβ accumulation in cultured nerve cells (CHP212 cells)
# Assay: Measurement of fluctuation in the amount of Aβ accumulation in cultured nerve cells
# Format: cell-based
# Details: human neuroblastoma CHP212 cells; Aβ in the medium by ELISA (Amyloid β1-42 kit) 48 hours after addition of test substance; 10^−11 M to 10^−6 M; versus DMSO control (100%)
# Text: FIG. 1 is a diagram showing results of measuring fluctuation caused by a test substance of the formula (II) in the amount of Aβ accumulation in cultured nerve cells (CHP212 cells).
# In the diagram, each column represents, starting from the left, a result of measurement obtained in a control well to which only a solvent (DMSO) has been added, in a well to which the test substance has been added so that its final concentration can be 10^−11 M (10^−11 M), in a well to which the test substance has been added so that its final concentration can be 10^−10 M (10^−10 M), in a well to which the test substance A has been added so that its final concentration can be 10^−9 M (10^−9 M), in a well to which the test substance has been added so that its final concentration can be 10^−8 M (10^−8 M), in a well to which the test substance has been added so that its final concentration can be 10^−7 M (10^−7 M), and in a well to which the test substance has been added so that its final concentration can be 10^−6 M (10^−6 M). The results are shown in % by setting a result obtained in a control well to which only a solvent (DMSO) has been added as 100%. […]
compound,measurement,value
CCCN(CC1CC1)c1ccc(C#N)c(C(F)(F)F)c1 [formula (II)],amount of Aβ accumulation,markedly decreased
